# From publication PMC5991599, “Anti‐tumor efficacy of a novel CLK inhibitor via targeting RNA splicing and MYC‐dependent vulnerability” (EMBO Molecular Medicine, 2018)
# Experiments:
# [1] = system: MV-4-11 AML cell line xenografts; assay: Efficacy study in MV-4-11 xenograft model; type: in vivo, Balb/c nude mice; conditions: 37.5 and 50 mg/kg
# Experimental: MDA‐MB‐468 (5 × 10^6), NCI‐H1048 (5 × 10^6), or MV‐4‐11 (2 × 10^6) cells in Matrigel were subcutaneously inoculated into the left flanks of Balb/c nude mice (7‐ to 8‐week‐old females). When xenografted tumors grew to a sufficient volume, the tumor diameter was measured and its volume was calculated as follows:
# Tumor volume=long diameter×short diameter×short diameter×(1/2)
# Mice having a tumor of size approximately 200 mm^3 were used in efficacy or in vivo pharmacodynamics studies. T‐025 was dissolved in 0.5% methylcellulose solution. For the efficacy study, after randomized grouping, mice were treated with T‐025 twice daily once or twice weekly for 2 or 3 weeks. The mouse tumor volume and body weight were measured every 2–3 days.
# HIPK2 [2] = target: T1, HIPK2 (Homo sapiens, UniProt Q9H2X6); assay: Immunoblotting of pS46 p53, direct phosphorylation site of HIPK2, in cells; type: cell-based; conditions: up to 1000 nmol/L; immunoblot from Fig 2A samples (MDA-MB-468, 6 h)
# T1 sequence (Q9H2X6 whole entry): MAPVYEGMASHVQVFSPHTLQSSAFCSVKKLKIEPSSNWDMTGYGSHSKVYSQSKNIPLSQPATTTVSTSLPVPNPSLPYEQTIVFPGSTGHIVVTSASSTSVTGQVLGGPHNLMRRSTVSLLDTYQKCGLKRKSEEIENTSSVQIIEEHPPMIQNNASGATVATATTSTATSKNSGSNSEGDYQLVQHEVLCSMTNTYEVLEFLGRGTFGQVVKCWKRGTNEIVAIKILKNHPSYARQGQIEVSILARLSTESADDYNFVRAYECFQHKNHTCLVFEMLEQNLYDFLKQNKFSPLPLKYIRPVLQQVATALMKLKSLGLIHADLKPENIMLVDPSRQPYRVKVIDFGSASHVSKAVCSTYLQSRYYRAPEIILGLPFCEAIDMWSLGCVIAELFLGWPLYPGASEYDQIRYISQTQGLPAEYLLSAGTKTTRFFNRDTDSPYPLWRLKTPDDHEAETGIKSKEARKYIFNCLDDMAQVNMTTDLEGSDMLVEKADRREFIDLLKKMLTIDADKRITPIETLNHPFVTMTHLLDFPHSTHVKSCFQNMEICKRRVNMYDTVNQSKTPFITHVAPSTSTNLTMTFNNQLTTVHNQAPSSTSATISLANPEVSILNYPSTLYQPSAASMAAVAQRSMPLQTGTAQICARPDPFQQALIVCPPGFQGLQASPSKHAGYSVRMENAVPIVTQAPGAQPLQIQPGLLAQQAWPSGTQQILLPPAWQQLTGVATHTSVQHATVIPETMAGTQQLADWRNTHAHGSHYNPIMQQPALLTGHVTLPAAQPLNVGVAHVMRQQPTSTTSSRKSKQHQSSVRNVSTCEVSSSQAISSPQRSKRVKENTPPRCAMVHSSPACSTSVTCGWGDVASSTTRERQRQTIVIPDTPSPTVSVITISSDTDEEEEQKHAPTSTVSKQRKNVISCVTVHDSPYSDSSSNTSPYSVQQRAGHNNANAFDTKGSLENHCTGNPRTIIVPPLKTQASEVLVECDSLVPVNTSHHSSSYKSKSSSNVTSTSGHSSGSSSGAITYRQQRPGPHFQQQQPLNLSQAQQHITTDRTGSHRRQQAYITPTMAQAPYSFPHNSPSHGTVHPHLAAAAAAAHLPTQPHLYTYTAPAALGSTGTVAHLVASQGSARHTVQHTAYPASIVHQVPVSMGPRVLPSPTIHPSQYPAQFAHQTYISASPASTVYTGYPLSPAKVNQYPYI
# Source text: EMBO Molecular Medicine - Peer Review Process File
# PRS6KB1 was observed by RNAi of CLK2 and T-025.
# It had already been reported that ASs induced by […]
# that T-025 and depletion of CLKs caused a similar splicing effect.
# Furthermore, T3, another CLK […]
# and increased MYC-dependent vulnerability (Fig EV4). […]
# phosphorylation, at a direct phosphorylation site of HIPK2, up to 1000 nmol/L (see below, from Fig.
# In quantifying the bands of pCLK2, the background of this immunoblotting around 50 kDa was relatively high and the band was shifted in the T-025 treated samples (below); thus, we could not […]
# BF is undefined and ∆PSI is not clearly defined. If ∆PSI is really "percentage splice-in", none of the effects is significant. The normalization of ∆PSI is unclear. In Figure 2E, the difference between […]
# According to the MISO software, the Bayer Factor (BF) represents the weight of the evidence in the data in favor of differential expression versus the weight of evidence not in favor. For example, a © European Molecular Biology Organization 13 […]
# COLO320HSR = assay: Cell proliferation assay (CellTiter-Glo); type: cell-based; conditions: Homo sapiens, COLO-320-HSR; 72 h treatment; colorectal cancer; read-out: IC50 (growth inhibition)
# Experimental: (§1) Cell proliferation assay, Caspase-3/7 assay
# (§2) Cell proliferation was measured using CellTiter-Glo luminescent cell viability
# (§3) assay (Promega, Fitchburg, WI, U.S.A.). Caspase-3/7 activity was measured using
# (§4) Caspase-Glo 3/7 Assay Systems (Promega). Luminescence of each well was measured
# (§5) using ARVO Light (PerkinElmer Inc., Waltham, MA, U.S.A.). The IC50 value and 95%
# (§6) confidential intervals were estimated using GraphPad Prism 5 (GraphPad Software,
# (§7) Inc., La Jolla, CA, U.S.A.). […]
# MDA-MB-468 = assay: Cell proliferation assay (CellTiter-Glo); type: cell-based; conditions: Homo sapiens, 72 h treatment, breast cancer, read-out: IC50 (growth inhibition)
# Experimental: as §1, §2, §3, §4, §5, §6, §7
# 786-O = assay: Cell proliferation assay (CellTiter-Glo); type: cell-based; conditions: Homo sapiens, 786-0; 72 h treatment; kidney cancer; read-out: IC50 (growth inhibition)
# Experimental: as §1, §2, §3, §4, §5, §6, §7
# Wi38 = assay: Cell proliferation assay (CellTiter-Glo); type: cell-based; conditions: Homo sapiens, WI-38; 72 h treatment; normal lung fibroblast; read-out: IC50 (growth inhibition)
# Experimental: as §1, §2, §3, §4, §5, §6, §7
# NCI-H1048 = assay: Cell proliferation assay (CellTiter-Glo); type: cell-based; conditions: Homo sapiens, 72 h treatment, lung cancer, read-out: IC50 (growth inhibition)
# Experimental: as §1, §2, §3, §4, §5, §6, §7
# BJ = assay: Cell proliferation assay (CellTiter-Glo); type: cell-based; conditions: Homo sapiens, 72 h treatment, normal skin fibroblast, read-out: IC50 (growth inhibition)
# Experimental: as §1, §2, §3, §4, §5, §6, §7
# FLT3 D835Y = target: T2, FLT3 D835Y (Homo sapiens, UniProt P36888, D835Y); assay: KINOMEScan-based kinase selectivity assay; type: binding; conditions: 300 nmol/L, n = 2
# T2 construct: purchased DiscoverX Corporation (Fremont, CA, USA)
# Experimental: (§8) The KINOMEScan‐based kinase selectivity assay was performed at the DiscoverX Corporation (Fremont, CA, USA). The panel of growth inhibition assay and subsequent bioinformatics analysis (Fig EV1) were performed at Eurofins Inc. (St. Charles, MO, USA), using OncoPanel 240 or 60. Details of the procedures of cell proliferation assay, caspase‐3/7 activity assay, immunoblotting, and immunohistochemistry are described in Appendix Supplementary Methods.
# HIPK3 = target: T3, HIPK3 (Homo sapiens, UniProt Q9H422); assay: KINOMEScan-based kinase selectivity assay; type: binding; conditions: 300 nmol/L, n = 2
# T3 construct: purchased DiscoverX Corporation (Fremont, CA, USA)
# Experimental: as §8
# HIPK4 = target: T4, HIPK4 (Homo sapiens, UniProt Q8NE63); assay: KINOMEScan-based kinase selectivity assay; type: binding; conditions: 300 nmol/L, n = 2
# T4 construct: purchased DiscoverX Corporation (Fremont, CA, USA)
# Experimental: as §8
# HIPK1 = target: T5, HIPK1 (Homo sapiens, UniProt Q86Z02); assay: KINOMEScan-based kinase selectivity assay; type: binding
# T5 construct: purchased DiscoverX Corporation (Fremont, CA, USA)
# T5 sequence (Q86Z02 whole entry): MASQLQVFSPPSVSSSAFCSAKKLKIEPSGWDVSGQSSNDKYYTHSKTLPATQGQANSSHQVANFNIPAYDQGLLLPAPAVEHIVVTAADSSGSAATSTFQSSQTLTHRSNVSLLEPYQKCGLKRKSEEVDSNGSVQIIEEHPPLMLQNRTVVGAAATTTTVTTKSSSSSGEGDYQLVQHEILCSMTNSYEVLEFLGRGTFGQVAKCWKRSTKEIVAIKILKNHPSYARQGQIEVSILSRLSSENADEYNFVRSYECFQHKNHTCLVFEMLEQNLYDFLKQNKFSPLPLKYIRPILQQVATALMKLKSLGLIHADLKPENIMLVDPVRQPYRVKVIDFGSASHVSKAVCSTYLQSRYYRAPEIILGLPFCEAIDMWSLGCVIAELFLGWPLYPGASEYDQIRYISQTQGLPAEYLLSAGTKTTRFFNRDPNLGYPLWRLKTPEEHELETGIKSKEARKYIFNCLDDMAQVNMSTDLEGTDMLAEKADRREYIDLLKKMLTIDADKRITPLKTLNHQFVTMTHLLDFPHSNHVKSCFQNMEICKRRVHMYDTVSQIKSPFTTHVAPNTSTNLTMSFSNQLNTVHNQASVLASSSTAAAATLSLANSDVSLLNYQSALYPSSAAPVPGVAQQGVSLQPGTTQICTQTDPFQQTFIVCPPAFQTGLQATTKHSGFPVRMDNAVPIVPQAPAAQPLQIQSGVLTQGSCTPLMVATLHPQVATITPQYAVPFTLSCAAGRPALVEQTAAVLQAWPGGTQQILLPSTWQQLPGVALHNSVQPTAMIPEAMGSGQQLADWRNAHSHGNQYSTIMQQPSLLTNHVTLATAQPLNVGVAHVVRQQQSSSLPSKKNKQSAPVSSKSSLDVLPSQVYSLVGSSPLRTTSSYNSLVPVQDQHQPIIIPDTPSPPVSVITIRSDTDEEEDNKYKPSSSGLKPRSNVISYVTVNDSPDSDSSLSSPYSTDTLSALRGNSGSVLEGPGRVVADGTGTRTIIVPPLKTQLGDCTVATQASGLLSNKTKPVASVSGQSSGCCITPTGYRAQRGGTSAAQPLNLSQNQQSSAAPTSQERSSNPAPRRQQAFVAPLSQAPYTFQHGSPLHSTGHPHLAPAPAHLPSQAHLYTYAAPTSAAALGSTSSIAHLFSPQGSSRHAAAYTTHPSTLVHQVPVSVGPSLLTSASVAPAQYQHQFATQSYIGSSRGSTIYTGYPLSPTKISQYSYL
# Experimental: (§9) The KINOMEScan‐based kinase selectivity assay was performed at the DiscoverX Corporation (Fremont, CA, USA). The panel of growth inhibition assay and subsequent bioinformatics analysis (Fig EV1) were performed at Eurofins Inc. (St. […] Details of the procedures of cell proliferation assay, caspase‐3/7 activity assay, immunoblotting, and immunohistochemistry are described in Appendix Supplementary Methods.
# CLK1 = CLK1 (Homo sapiens, UniProt P49759); assay: KINOMEScan-based kinase selectivity assay; type: binding
# Chain of CLK1 (P49759 whole entry): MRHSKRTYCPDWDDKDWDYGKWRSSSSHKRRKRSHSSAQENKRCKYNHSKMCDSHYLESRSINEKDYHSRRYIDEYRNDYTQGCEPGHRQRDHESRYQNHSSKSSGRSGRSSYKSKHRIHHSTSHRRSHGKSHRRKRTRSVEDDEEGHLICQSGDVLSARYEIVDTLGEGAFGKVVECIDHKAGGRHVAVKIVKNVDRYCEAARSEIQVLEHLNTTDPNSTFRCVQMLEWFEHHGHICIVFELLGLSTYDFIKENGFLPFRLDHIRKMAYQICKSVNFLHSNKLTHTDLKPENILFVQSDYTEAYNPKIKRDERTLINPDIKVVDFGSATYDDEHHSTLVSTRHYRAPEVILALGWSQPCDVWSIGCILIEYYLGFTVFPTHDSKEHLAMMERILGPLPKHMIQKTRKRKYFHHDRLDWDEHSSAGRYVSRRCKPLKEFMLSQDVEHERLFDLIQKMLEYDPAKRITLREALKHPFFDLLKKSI
# Experimental: as §9
# ERK8 = target: T6, ERK8 (Homo sapiens, UniProt Q8TD08); assay: KINOMEScan-based kinase selectivity assay; type: binding
# T6 construct: purchased DiscoverX Corporation (Fremont, CA, USA)
# T6 sequence (Q8TD08 whole entry): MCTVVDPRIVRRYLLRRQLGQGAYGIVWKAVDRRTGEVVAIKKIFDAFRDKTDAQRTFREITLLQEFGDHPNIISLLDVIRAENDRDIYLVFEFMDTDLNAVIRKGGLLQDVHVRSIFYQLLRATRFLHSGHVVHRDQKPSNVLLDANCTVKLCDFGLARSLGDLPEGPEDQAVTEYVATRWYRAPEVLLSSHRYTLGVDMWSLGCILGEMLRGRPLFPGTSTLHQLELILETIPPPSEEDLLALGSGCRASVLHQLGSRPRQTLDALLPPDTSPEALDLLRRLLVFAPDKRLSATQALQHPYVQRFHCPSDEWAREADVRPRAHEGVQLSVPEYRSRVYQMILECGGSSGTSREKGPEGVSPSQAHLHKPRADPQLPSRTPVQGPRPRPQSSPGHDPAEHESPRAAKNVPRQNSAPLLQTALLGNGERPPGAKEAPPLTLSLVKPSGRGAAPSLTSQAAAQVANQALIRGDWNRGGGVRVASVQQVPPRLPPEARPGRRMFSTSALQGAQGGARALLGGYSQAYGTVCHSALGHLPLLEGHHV
# Experimental: as §9
# CLK3 = CLK3 (Homo sapiens, UniProt P49761); assay: KINOMEScan-based kinase selectivity assay; type: binding
# Chain of CLK3 (P49761 whole entry): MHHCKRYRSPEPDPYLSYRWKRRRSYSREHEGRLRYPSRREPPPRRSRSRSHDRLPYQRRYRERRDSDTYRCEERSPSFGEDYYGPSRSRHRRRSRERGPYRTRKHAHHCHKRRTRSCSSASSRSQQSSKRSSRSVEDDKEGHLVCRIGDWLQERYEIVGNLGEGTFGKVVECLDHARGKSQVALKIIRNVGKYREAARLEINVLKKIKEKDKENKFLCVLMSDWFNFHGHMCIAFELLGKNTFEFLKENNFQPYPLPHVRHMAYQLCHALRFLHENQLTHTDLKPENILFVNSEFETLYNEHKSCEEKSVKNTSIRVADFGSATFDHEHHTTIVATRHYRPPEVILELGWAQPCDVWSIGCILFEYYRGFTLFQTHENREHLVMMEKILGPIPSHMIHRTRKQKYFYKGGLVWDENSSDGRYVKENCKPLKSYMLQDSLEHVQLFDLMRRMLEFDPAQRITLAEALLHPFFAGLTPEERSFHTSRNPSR
# Experimental: as §9
# DYRK2 = target: T7, DYRK2 (Homo sapiens, UniProt Q92630); assay: KINOMEScan-based kinase selectivity assay; type: binding
# T7 construct: purchased DiscoverX Corporation (Fremont, CA, USA)
# T7 sequence (Q92630 whole entry): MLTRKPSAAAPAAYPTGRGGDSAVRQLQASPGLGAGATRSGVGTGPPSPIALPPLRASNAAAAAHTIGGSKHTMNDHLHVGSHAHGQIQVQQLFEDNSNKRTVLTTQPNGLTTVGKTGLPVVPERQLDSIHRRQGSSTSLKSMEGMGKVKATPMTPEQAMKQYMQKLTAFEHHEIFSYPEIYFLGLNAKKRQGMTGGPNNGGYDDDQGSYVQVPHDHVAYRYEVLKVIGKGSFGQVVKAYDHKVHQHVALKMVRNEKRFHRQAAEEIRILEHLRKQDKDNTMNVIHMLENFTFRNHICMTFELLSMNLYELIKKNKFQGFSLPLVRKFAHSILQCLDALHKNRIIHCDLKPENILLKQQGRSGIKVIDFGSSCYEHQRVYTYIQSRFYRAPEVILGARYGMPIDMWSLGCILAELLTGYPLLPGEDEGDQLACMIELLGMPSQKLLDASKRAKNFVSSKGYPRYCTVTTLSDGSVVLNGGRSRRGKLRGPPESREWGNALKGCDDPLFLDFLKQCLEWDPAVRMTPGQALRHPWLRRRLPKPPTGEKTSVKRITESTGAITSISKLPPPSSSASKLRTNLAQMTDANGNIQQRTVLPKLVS
# Experimental: as §9
# CLK2 = CLK2 (Homo sapiens, UniProt P49760); assay: KINOMEScan-based kinase selectivity assay; type: binding
# Chain of CLK2 (P49760 whole entry): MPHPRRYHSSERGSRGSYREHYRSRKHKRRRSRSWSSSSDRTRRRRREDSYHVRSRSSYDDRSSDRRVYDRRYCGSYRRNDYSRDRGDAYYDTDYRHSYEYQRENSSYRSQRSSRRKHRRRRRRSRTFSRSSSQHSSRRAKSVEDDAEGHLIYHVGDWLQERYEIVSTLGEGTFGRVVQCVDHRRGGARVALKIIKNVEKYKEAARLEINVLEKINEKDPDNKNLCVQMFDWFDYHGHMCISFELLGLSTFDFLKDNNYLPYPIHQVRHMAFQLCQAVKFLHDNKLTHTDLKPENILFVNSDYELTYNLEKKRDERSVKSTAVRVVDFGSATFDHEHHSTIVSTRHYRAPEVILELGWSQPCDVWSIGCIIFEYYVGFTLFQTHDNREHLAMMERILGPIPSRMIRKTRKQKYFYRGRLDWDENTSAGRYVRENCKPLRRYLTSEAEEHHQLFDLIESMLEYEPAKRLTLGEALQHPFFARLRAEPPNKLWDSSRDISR
# Experimental: as §9
# FLT3 D835H = target: T8, FLT3 D835H (Homo sapiens, UniProt P36888, D835H); assay: KINOMEScan-based kinase selectivity assay; type: binding
# T8 construct: purchased DiscoverX Corporation (Fremont, CA, USA)
# Experimental: as §9
# DYRK1B = DYRK1B (Homo sapiens, UniProt Q9Y463); assay: KINOMEScan-based kinase selectivity assay; type: binding; parameters: purchased DiscoverX Corporation (Fremont, CA, USA)
# Experimental: as §9
# HIPK2 [3] = target: T1, HIPK2; assay: KINOMEScan-based kinase selectivity assay; type: binding; parameters: purchased DiscoverX Corporation (Fremont, CA, USA)
# Experimental: as §9
compound,measurement,setting,value
"CNc1nc(NCc2ncccn2)c2c(-c3ccc4ncccc4c3)c[nH]c2n1 [T-025, N ^2‐methyl‐N ^4‐[pyrimidin‐2‐ylmethyl]‐5‐[quinolin‐6‐yl]‐7H‐pyrrolo[2,3‐d]pyrimidine‐2,4‐diamine]","anti-tumor efficacy, tumor volume",[1],profound anti‐tumor efficacies
same,inhibition of HIPK2 in cells (pS46 p53 phosphorylation),HIPK2 [2],did not inhibit HIPK2
same,IC50,COLO320HSR,91.8 nM
same,IC50,MDA-MB-468,79.8 nM
same,IC50,786-O,340 nM
same,IC50,Wi38,257 nM
same,IC50,NCI-H1048,84.4 nM
same,IC50,BJ,355 nM
same,inhibition at 0.3 µM,FLT3 D835Y,93.3%
same,inhibition at 0.3 µM,HIPK3,95.1%
same,inhibition at 0.3 µM,HIPK4,95.6%
same,Kd,HIPK1,55 nM
same,inhibition at 0.3 µM,"HIPK1; 300 nmol/L, n = 2",94.6%
same,Kd,CLK1,4.8 nM
same,inhibition at 0.3 µM,"CLK1; 300 nmol/L, n = 2",99.4%
same,Kd,ERK8,140 nM
same,inhibition at 0.3 µM,"ERK8; 300 nmol/L, n = 2",94.8%
same,Kd,CLK3,6.5 nM
same,inhibition at 0.3 µM,"CLK3; 300 nmol/L, n = 2",90.2%
same,Kd,DYRK2,32 nM
same,inhibition at 0.3 µM,"DYRK2; 300 nmol/L, n = 2",98.6%
same,Kd,CLK2,0.096 nM
same,inhibition at 0.3 µM,"CLK2; 300 nmol/L, n = 2",93.1%
same,Kd,FLT3 D835H,94 nM
same,inhibition at 0.3 µM,"FLT3 D835H; 300 nmol/L, n = 2",98.8%
same,Kd,DYRK1B,1.5 nM
same,inhibition at 0.3 µM,"DYRK1B; 300 nmol/L, n = 2",99.6%
same,Kd,HIPK2 [3],96 nM
same,inhibition at 0.3 µM,"HIPK2 [3]; 300 nmol/L, n = 2",96%
